The text below walks through data of paper PMC11684029, “Discovery of VU6024578/BI02982816: An mGlu1 Positive Allosteric Modulator with Efficacy in Preclinical Antipsychotic and Cognition Models” (Journal of Medicinal Chemistry, 2024).

The structures appear in SMILES notation.

One data set deals with T1, human mGlu1 (Homo sapiens, UniProt Q13255).
T1 construct: expressed in transfected cells; pcDNA5/TO)
Description: mGlu1 calcium mobilization (triple-add) PAM assay. The data set is classed as cell-based. On the procedure:
Tetracycline-inducible human mGlu1 WT-T-REx-293 cells (Wu et al, Science 2014) were cultured at 37 °C in Dulbecco’s Modified Eagle Medium (DMEM) growth medium containing 10% Tet-tested FBS, 2 mM L-glutamine, 20 mM HEPES, 0.1 mM nonessential amino acids, 1 mM sodium pyruvate, antibiotic/antimycotic, 100 μg/mL hygromycin and 5 μg/mL blasticidin in the presence of 5% CO2. […] The mutant stable cell lines were generated in the same manner as the WT as previously described and cultured in the growth medium described above.
To determine the potency of mGlu1 PAMs in calcium assays, Ca flux was measured as previously described in ACS Chem. Bio. 2014, 9, 2334–2346. Briefly, the day before the assay, human mGlu1 WT-T-REx-293 cells were plated in black-walled, clear-bottomed, poly-D-lysine coated 96-well plates at 80,000 cells/100 μL assay medium (DMEM supplemented with 10% dialyzed FBS, 20 mM HEPES, and 1 mM sodium pyruvate) containing 50 ng/mL of tetracycline to induce mGlu1 expression. The next day, media was removed and the cells were incubated with 50 μL of 1.15 μM Fluo-4 AM dye solution prepared in assay buffer (buffer (Hank’s balanced salt solution, 20 mM HEPES, and 2.5 mM probenecid) for 45 min at 37 °C, the dye was removed and replaced with 45 μL of assay buffer. Then, calcium flux was measured using Flexstation II (Molecular Devices, Sunnyvale, CA). Compounds serially diluted at half log concentrations in DMSO were further diluted in assay buffer. The compounds or DMSO vehicle were added to cells and incubated for 2.5 min and an EC20 concentration of glutamate was added and incubated for 1 min. An ECmax concentration of glutamate was also added to cells that were incubated with DMSO vehicle to accurately calculate the EC20 calcium response. Data were normalized by subtracting the basal florescent peak before EC20 agonist addition from the maximal peak elicited by EC20 agonist and PAMs. Using GraphPad Prism 5.0, the concentration response curves were generated and the potencies of the mGlu1 PAMs were determined.

A further data set has as its target rat mGlu1 (Rattus norvegicus, UniProt P23385). Description: mGlu1 calcium mobilization PAM assay. Conditions: PAM, calcium flux. In kind it is cell-based.
Data set [1] in a line: intrinsic clearance, predicted hepatic clearance. In kind it is in vitro ADME, rat. Particulars: in vitro predicted hepatic clearance. On the procedure: (§1) Human or rat hepatic microsomes (0.5 mg/mL) and 1 μM test compound were incubated in 100 mM potassium phosphate pH 7.4 buffer with 3 mM MgCl2 at 37 °C with constant shaking. After a 5 min preincubation, the reaction was initiated by addition of NADPH (1 mM). At selected time intervals (0, 3, 7, 15, 25, and 45 min), aliquots were taken and subsequently placed into a 96-well plate containing cold acetonitrile with internal standard (50 ng/mL carbamazepine). Plates were then centrifuged at 3000 rcf (4 °C) for 10 min, and the supernatant was transferred to a separate 96-well plate and diluted 1:1 with water for LC/MS/MS analysis. The in vitro half-life (T1/2, min, eq 1), intrinsic clearance (CLint, mL/min/kg, eq 2) and subsequent predicted hepatic clearance (CLhep, mL/min/kg, eq 3) was determined employing the following equations: [drawing 2] 1 where k represents the slope from linear regression analysis of the natural log percent remaining of test compound as a function of incubation time [drawing 3] 2
(§2) ^ascale-up factors: of 20 (human) or 45 (rat) [drawing 4] 3 where Qh (hepatic blood flow, mL/min/kg) is 21 (human) or 70 (rat).

Another data set can be described thus: brain homogenate binding. Conditions: fraction unbound. The data set is classed as in vitro ADME, rat.
Data set [2] can be described thus: plasma protein binding, equilibrium dialysis. In kind it is in vitro ADME, human. Conditions: fraction unbound. On the procedure: (§3) The protein binding of each compound was determined in plasma via equilibrium dialysis employing RED Plates (ThermoFisher Scientific, Rochester, NY). Plasma was added to the 96 well plate containing test compound and mixed thoroughly for a final concentration of 5 μM. Subsequently, an aliquot of the plasma-compound mixture was transferred to the cis chamber (red) of the RED plate, with an phosphate buffer (25 mM, pH 7.4) in the trans chamber. The RED plate was sealed and incubated for 4 h at 37 °C with shaking. At completion, aliquots from each chamber were diluted 1:1 with either plasma (cis) or buffer (trans) and transferred to a new 96 well plate, at which time ice-cold acetonitrile containing internal standard (50 ng/mL carbamazepine) (2 volumes) was added to extract the matrices. The plate was centrifuged (3000 rcf, 10 min) and supernatants transferred and diluted 1:1 (supernatant: water) into a new 96 well plate, which was then sealed in preparation for LC/MS/MS analysis. Each compound was assayed in triplicate within the same 96-well plate. Fraction unbound was determined using the following equation [drawing 1]

A short description of data set [3]: plasma protein binding, equilibrium dialysis. In kind it is in vitro ADME, rat. Conditions: fraction unbound. On the procedure:
as §3

The nature of data set [4]: intrinsic clearance, predicted hepatic clearance. Conditions: in vitro predicted hepatic clearance. The data set is classed as in vitro ADME, human. On the procedure: as §1, §2
[5] abbreviates: PAM, calcium flux, EC20 glutamate.

T1 sequence (Q13255 19-1194): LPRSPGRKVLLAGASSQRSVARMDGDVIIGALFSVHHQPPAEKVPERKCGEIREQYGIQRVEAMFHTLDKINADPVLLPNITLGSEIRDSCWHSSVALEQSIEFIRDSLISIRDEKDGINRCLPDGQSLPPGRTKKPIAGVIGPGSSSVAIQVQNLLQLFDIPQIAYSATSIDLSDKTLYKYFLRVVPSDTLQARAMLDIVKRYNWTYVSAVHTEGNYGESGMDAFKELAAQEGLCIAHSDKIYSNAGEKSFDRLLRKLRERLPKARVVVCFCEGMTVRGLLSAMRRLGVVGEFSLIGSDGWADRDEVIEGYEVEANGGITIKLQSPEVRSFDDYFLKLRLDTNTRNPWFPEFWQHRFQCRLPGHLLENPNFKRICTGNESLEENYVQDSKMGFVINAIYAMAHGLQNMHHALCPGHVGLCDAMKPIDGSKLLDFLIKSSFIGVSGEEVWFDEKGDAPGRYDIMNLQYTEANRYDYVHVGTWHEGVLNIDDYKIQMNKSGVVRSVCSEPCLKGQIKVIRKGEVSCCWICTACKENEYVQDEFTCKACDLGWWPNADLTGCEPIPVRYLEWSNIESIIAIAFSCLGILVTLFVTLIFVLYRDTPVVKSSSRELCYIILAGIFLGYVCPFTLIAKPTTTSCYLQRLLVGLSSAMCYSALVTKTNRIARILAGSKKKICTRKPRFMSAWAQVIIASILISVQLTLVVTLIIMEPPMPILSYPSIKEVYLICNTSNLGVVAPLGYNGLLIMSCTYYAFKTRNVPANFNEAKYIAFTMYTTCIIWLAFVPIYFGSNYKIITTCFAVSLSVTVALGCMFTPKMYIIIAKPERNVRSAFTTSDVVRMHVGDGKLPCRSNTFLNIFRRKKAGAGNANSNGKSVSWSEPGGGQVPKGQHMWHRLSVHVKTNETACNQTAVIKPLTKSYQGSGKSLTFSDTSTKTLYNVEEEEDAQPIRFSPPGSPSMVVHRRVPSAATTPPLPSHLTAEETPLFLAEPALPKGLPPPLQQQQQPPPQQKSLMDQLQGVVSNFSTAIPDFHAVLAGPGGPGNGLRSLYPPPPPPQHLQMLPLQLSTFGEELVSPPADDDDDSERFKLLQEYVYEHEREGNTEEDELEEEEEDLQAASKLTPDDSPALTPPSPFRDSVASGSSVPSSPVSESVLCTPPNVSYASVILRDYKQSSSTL
Sequence of rat mGlu1 (P23385 19-1199): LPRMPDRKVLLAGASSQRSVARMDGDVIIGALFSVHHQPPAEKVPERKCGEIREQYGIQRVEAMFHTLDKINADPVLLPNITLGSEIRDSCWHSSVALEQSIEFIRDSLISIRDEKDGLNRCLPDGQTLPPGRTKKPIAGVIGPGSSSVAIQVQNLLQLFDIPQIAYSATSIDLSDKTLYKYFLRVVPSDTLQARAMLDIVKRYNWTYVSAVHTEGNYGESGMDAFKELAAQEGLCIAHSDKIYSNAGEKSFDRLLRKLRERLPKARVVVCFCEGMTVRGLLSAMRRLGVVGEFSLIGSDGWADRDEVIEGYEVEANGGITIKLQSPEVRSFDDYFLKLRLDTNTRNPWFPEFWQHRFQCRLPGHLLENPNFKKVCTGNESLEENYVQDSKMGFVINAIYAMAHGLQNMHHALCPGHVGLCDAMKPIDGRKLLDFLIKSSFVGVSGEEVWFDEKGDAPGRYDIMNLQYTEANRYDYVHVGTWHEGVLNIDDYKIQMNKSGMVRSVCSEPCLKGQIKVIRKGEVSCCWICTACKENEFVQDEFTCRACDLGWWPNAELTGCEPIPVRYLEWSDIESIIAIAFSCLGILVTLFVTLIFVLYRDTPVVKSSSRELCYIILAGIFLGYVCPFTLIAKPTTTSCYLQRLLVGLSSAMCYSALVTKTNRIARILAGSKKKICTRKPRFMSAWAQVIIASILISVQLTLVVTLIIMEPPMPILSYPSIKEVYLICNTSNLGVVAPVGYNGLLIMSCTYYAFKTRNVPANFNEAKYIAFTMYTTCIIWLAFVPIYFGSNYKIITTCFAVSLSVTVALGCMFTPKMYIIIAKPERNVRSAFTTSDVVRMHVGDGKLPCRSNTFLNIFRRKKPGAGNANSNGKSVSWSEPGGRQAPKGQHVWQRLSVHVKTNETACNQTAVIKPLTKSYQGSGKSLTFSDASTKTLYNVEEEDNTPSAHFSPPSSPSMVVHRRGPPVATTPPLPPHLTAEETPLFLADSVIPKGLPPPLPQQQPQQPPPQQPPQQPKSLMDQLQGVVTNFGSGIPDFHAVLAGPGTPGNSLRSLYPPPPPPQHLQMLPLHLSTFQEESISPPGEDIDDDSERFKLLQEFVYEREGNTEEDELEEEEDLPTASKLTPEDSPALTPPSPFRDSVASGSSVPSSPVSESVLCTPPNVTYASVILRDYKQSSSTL

Take `O=C(NCc1cnn2ccccc12)c1cc(-c2ccsc2)ccc1Cl` [Compound 9h, 2-Chloro-N-(pyrazolo[1,5-a]pyridin-3-ylmethyl)-5-(thiophen-3-yl)benzamide]: on human mGlu1 (setting [5]), the EC50 (usually the concentration needed to bring the measured effect to its halfway point) was 641 nM and the “human mGlu1 Glumax” value worked out at 35%.
`O=C(NCc1cnn2ccccc12)c1cc(Cl)ccc1Cl` [Compound 9d, 2,5-Dichloro-N-(pyrazolo[1,5-a]pyridin-3-ylmethyl)benzamide]: at human mGlu1 (setting [5]), the EC50 is 3790 nM and the “human mGlu1 Glumax” value is reported as 46%. For the same compound, the “improvement in mGlu1 PAM potency over HTS hit 6” value on human mGlu1 (human mGlu1 EC50 ratio) is listed as ~3 fold.
With `O=C(NCc1cnn2ccccc12)c1cc(-c2nccs2)ccc1Cl` [Compound 9i, 2-Chloro-N-(pyrazolo[1,5-a]pyridin-3-ylmethyl)-5-(thiazol-2-yl)benzamide], on rat mGlu1, the EC50 stood at 3150 nM and the “rat mGlu1 Glumax” value was found to be 79%. At human mGlu1 (setting [5]), the EC50 came out at 790 nM and the “human mGlu1 Glumax” value was determined as 61%.
Turning to `O=C(NCc1cnn2ccccc12)c1cc(-c2ccccc2)ccc1Cl` [Compound 9f, 4-Chloro-N-(pyrazolo[1,5-a]pyridin-3-ylmethyl)-[1,1′-biphenyl]-3-carboxamide], on rat mGlu1, the EC50 stood at 1010 nM and the “rat mGlu1 Glumax” value was 48%. At human mGlu1 (setting [5]), the EC50 came out at 434 nM and the “human mGlu1 Glumax” value is listed as 33%.
Take `COc1ccc(OC)c(C(=O)NCc2cnn3ccccc23)c1` [Compound 9a, 2,5-Dimethoxy-N-(pyrazolo[1,5-a]pyridin-3-ylmethyl)benzamide]: on human mGlu1 (setting [5]), the EC50 came to 5120 nM and the “human mGlu1 Glumax” value came out at 45%.
Consider `Cn1nc(-c2cccs2)cc1CNC(=O)c1cc(-c2ccco2)ccc1Cl` [Compound 19a, 2-Chloro-5-(furan-2-yl)-N-((1-methyl-3-(thiophen-2-yl)-1H-pyrazol-5-yl)methyl)benzamide], for which, on rat mGlu1, the EC50 was 20 nM and the “rat mGlu1 Glumax” value is given as 109%. On human mGlu1 (setting [5]), the EC50 is 56 nM and the “human mGlu1 Glumax” value is 69%. Besides, the “CLhep, rat” value in data set [1] was 54.8 mL/min/kg. The same compound showed a rat fubrain in the data set “brain homogenate binding” of 0.003. Besides, in data set [2], the human fuplasma amounted to 0.002. The compound further registered a rat fuplasma in data set [3] of 0.002. For the same compound, the “CLhep, human” value in data set [4] was 19.0 mL/min/kg.
Turning to `Cn1nc(-c2ccccc2F)cc1CNC(=O)c1cc(-c2ccco2)ccc1Cl` [Compound 19b, 2-Chloro-N-((3-(2-fluorophenyl)-1-methyl-1H-pyrazol-5-yl)methyl)-5-(furan-2-yl)benzamide], on rat mGlu1, the EC50 came out at 133 nM and the “rat mGlu1 Glumax” value worked out at 116%. At human mGlu1 (setting [5]), the EC50 turned out to be 195 nM and the “human mGlu1 Glumax” value was 85%. In addition, the “CLhep, rat” value in data set [1] was 56.4 mL/min/kg. In the data set “brain homogenate binding”, this compound yielded a rat fubrain of 0.003. This compound had a human fuplasma in data set [2] of 0.002. The same compound displayed a rat fuplasma in data set [3] of 0.002. Moreover, the “CLhep, human” value in data set [4] is 18.6 mL/min/kg.
Regarding `O=C(NCc1cc(-c2ccccc2)no1)c1cc(-c2ccco2)ccc1Cl` [Compound 15a, 2-Chloro-5-(furan-2-yl)-N-((3-phenylisoxazol-5-yl)methyl)benzamide], on human mGlu1 (setting [5]), the EC50 was 211 nM and the “human mGlu1 Glumax” value amounted to 96%. Further, the “CLhep, rat” value in data set [1] is 60.9 mL/min/kg. In data set [2], this compound displayed a human fuplasma of 0.001. The compound further gave a rat fuplasma in data set [3] of 0.009. Further, the “CLhep, human” value in data set [4] is 19.4 mL/min/kg.
Regarding `O=C(NCc1cnc(-c2cccs2)s1)c1cc(-c2ccco2)ccc1Cl` [Compound 15e, 2-Chloro-5-(furan-2-yl)-N-((2-(thiophen-2-yl)thiazol-5-yl)methyl)benzamide], at rat mGlu1, the EC50 worked out at 301 nM and the “rat mGlu1 Glumax” value is 51%. On human mGlu1 (setting [5]), the EC50 stood at 96 nM and the “human mGlu1 Glumax” value worked out at 71%. The “CLhep, rat” value in data set [1] is 57.4 mL/min/kg. Also, the rat fubrain in the data set “brain homogenate binding” is 0.002. This compound also came in with a human fuplasma in data set [2] of 0.001. The same compound yielded a rat fuplasma in data set [3] of 0.003. In data set [4], the “CLhep, human” value is recorded as 19.7 mL/min/kg.
Take `Cn1nc(C(F)(F)F)cc1CNC(=O)c1cc(-c2ccco2)ccc1Cl` [Compound 15f, 2-Chloro-5-(furan-2-yl)-N-((1-methyl-3-(trifluoromethyl)-1H-pyrazol-5-yl)methyl)benzamide]: at rat mGlu1, the EC50 came out at 280 nM and the “rat mGlu1 Glumax” value is recorded as 74%. Further, at human mGlu1 (setting [5]), the EC50 stood at 188 nM and the “human mGlu1 Glumax” value is 60%. For the same compound, the “CLhep, rat” value in data set [1] was 57.1 mL/min/kg. The same compound showed a rat fubrain in the data set “brain homogenate binding” of 0.019. Further, the human fuplasma in data set [2] is 0.036. Also, the rat fuplasma in data set [3] came to 0.025. The “CLhep, human” value in data set [4] is 20.3 mL/min/kg.
For the compound `Cc1ccc(Cl)cc1C(=O)NCc1cnn2ccccc12` [Compound 9c, 5-Chloro-2-methyl-N-(pyrazolo[1,5-a]pyridin-3-ylmethyl)benzamide], on human mGlu1 (setting [5]), the EC50 worked out at 6060 nM and the “human mGlu1 Glumax” value worked out at 47%.
As to `O=C(NCc1nc(C2CC2)no1)c1cc(-c2ccco2)ccc1Cl` [Compound 15d, 2-Chloro-N-((3-cyclopropyl-1,2,4-oxadiazol-5-yl)methyl)-5-(furan-2-yl)benzamide], on rat mGlu1, the EC50 worked out at 509 nM and the “rat mGlu1 Glumax” value worked out at 95%. Also, on human mGlu1 (setting [5]), the EC50 amounted to 714 nM and the “human mGlu1 Glumax” value came out at 80%.
Take `O=C(NCc1cnn2ccccc12)c1cc(-c2cccs2)ccc1Cl` [Compound 9g, 2-Chloro-N-(pyrazolo[1,5-a]pyridin-3-ylmethyl)-5-(thiophen-2-yl)benzamide]: on rat mGlu1, the EC50 stood at 369 nM and the “rat mGlu1 Glumax” value came out at 75%. Besides, at human mGlu1 (setting [5]), the EC50 was found to be 291 nM and the “human mGlu1 Glumax” value was determined as 51%.
Regarding `COc1ccc(Cl)cc1C(=O)NCc1cnn2ccccc12` [Compound 6, 5-Chloro-2-methoxy-N-(pyrazolo[1,5-a]pyridin-3-ylmethyl)benzamide], on human mGlu1 (setting [5]), the EC50 is > 10000 nM and the “human mGlu1 Glumax” value stood at 71%.
Taken in the same sequence, the figures for `COc1ccc(C)cc1C(=O)NCc1cnn2ccccc12` [Compound 9b, 2-Methoxy-5-methyl-N-(pyrazolo[1,5-a]pyridin-3-ylmethyl)benzamide] were 7380 nM and 62%.
On to `Cn1nccc1-c1ccc(Cl)c(C(=O)NCc2cnn3ccccc23)c1` [Compound 9j, 2-Chloro-5-(1-methyl-1H-pyrazol-5-yl)-N-(pyrazolo[1,5-a]pyridin-3-ylmethyl)benzamide], for which, on human mGlu1 (setting [5]), the “human mGlu1 EC50 (Glumax), result in words” value is given as “Inactive”.
Regarding `O=C(NCc1noc(C2CC2)n1)c1cc(-c2ccco2)ccc1Cl` [Compound 15c, 2-Chloro-N-((5-cyclopropyl-1,2,4-oxadiazol-3-yl)methyl)-5-(furan-2-yl)benzamide], on human mGlu1 (setting [5]), the EC50 is 10000 nM and the “human mGlu1 Glumax” value was 44%.
